Legend:
[1] = system: neuraminidase (NA) of Influenza A/Korea/2785/2009 (H275Y mutation); type: biochemical, Influenza A virus
[2] = system: virus showing oseltamivir resistance due to the H275Y mutation; type: binding, influenza virus
[3] = system: neuraminidase site of oseltamivir-resistant virus (mutant type); parameters: species or system influenza virus

| SMILES | inhibition of NA activity of mutant-type virus compared with wild-type virus [1] | affinity for H275Y oseltamivir-resistant virus relative to oseltamivir sensitive virus [2] | affinity for mutant type relative to wild type [3] |
| --- | --- | --- | --- |
| CCC(CC)O[C@@H]1C=C(C(=O)OCCCCCCS)C[C@H](N)[C@H]1NC(C)=O [oseltamivir hexylthiol] | inhibited the NA activity of the mutant-type virus (H275Y mutation) more significantly than the NA activity of the wild-type virus | about 1000 fold | about 250 fold |
| CCC(CC)O[C@@H]1C=C(C(=O)OCCCCCCN)C[C@H](N)[C@H]1NC(C)=O [oseltamivir hexylamine] | inhibited the NA activity of the mutant-type virus (H275Y mutation) more significantly than the NA activity of the wild-type virus | about 1000 fold |  |

— patent publication US10336693B2 (priority 2015, dated 2019)
